Data published in patent US4880789A, “2'-Substituted-4-deoxy-thiazolo(5,4-c)-rifamycin SV derivatives” (Gruppo Lepetit S.P.A., priority 1985, dated 1989).
Values after ≈ are worked out from the molar mass of the structure shown. Read-outs that look alike come from different tables or passages of the source.

Assays:
[1] = tested on: Pseudomonas aeruginosa ATCC 10145; assay: MIC, two-fold dilution microtiter, P. aeruginosa ATCC 10145; assay type: cell-based; settings: Pseudomonas aeruginosa, ATCC10145; P. aeruginosa ATCC 10145; Iso-Sensitest broth; 18-24 h, 37° C; read-out: MIC
[2] = tested on: Escherichia coli SKF 12140; assay: MIC, two-fold dilution microtiter, E. coli SKF 12140; assay type: cell-based; settings: Escherichia coli, SKF12140, Iso-Sensitest broth, 18-24 h, 37° C, read-out: MIC
[3] = tested on: Klebsiella pneumoniae ISM; assay: MIC, two-fold dilution microtiter, K. pneumoniae ISM; assay type: cell-based; settings: Klebsiella pneumoniae; K. pneumoniae ISM; Iso-Sensitest broth; 18-24 h, 37° C; read-out: MIC
[4] = tested on: Mycobacterium tuberculosis H37RV ATCC 9360; assay: MIC, M. tuberculosis H37RV, Kirschner medium; assay type: cell-based; settings: Mycobacterium tuberculosis, 168 h, 10% horse serum, 7 days, 37° C, read-out: MIC
Description: (§1) The minimum inhibitory concentration (MIC) of representative compounds of the invention was determined using two-fold dilution method in microtiter system. The media used were: Todd-Hewitt broth (Difco) for steptococci; Iso-Sensitest broth (Oxoid) for staphylococci and gram-negative bacteria. The final inoculum was about 10^4 cfμ/ml. […] For M. tuberculosis H37 RV the inoculum consisted of 0.5-1% of a 7-9 day culture in Dubos medium. The tests were carried out in Kirschner medium supplemented with 10% horse serum. Observations were made after 7-days incubation at 37° C.

S. pneumoniae UC 41 = assay: MIC, two-fold dilution microtiter, S. pneumoniae UC 41; assay type: cell-based; settings: Streptococcus pneumoniae, UC41, Todd-Hewitt broth, 18-24 h, 37° C, read-out: MIC
[5] = tested on: Streptococcus pyogenes C203; assay: MIC, two-fold dilution microtiter, S. pyogenes C203; assay type: cell-based; settings: Streptococcus pyogenes, Todd-Hewitt broth, 18-24 h, 37° C, read-out: MIC
Description: as §1

S. faecalis ATCC 7080 = assay: MIC, two-fold dilution microtiter, S. faecalis ATCC 7080; assay type: cell-based; settings: Enterococcus faecalis, ATCC7080, 18-24 h, 37° C, read-out: MIC
S. aureus TOUR L 1282 = assay: MIC, two-fold dilution microtiter, rifampicin resistant S. aureus TOUR L 1282; assay type: cell-based; settings: Staphylococcus aureus, TOURL1282, rifampicin resistant strain
[6] = tested on: Staphylococcus aureus ATCC 6538; assay: MIC, two-fold dilution microtiter, S. aureus ATCC 6538; assay type: cell-based; settings: Staphylococcus aureus, ATCC6538; S. aureus ATCC 6538; Iso-Sensitest broth; 18-24 h, 37° C; read-out: MIC
S. aureus TOUR L 165 [7] = assay: MIC, two-fold dilution microtiter, S. aureus TOUR L 165; assay type: cell-based, Staphylococcus aureus; settings: Staphylococcus aureus, TOURL165, S. aureus TOUR L 165, read-out: MIC
[8] = tested on: Proteus vulgaris XI9H ATCC 881; assay: MIC, two-fold dilution microtiter, P. vulgaris; assay type: cell-based; settings: Proteus vulgaris, ATCC881; P. vulgaris XI9H ATCC 881; Iso-Sensitest broth; 18-24 h, 37° C; read-out: MIC
S. aureus tour L 165 [9] = assay: experimental septicemia in mice (S. aureus); assay type: in vivo; settings: Staphylococcus aureus, once daily for three days, survival on 10th day
Description: The antimicrobial activity of the compounds of the invention is also confirmed in "in vivo" tests. The animals (groups of five mice) were infected by intraperitoneal injection of 16-hour broth culture of S. aureus tour L 165. Inocula were adjusted so that untreated animals died of septicemia within 48 hours. Animals were treated once daily for three days starting immediately after infection. On the 10th day the value for the ED50 in mg/kg/day was calculated by the method of […]-KARBER (Finney, D. J., Statistical method in biological assay, page 524. C. Griffin Ltd., London, 1952), on the basis of the percentage of surviving animals at each dose.

[10] = Iso-Sensitest broth, 18-24 h, 37° C
[11] = supplemented with 30% bovine serum

| SMILES | MIC [1] | MIC [2] | MIC [3] | MIC [4] | MIC (S. pneumoniae UC 41) | MIC [5] | MIC (S. faecalis ATCC 7080) | MIC (S. aureus TOUR L 1282) | MIC [6] | MIC (S. aureus TOUR L 165 [7]; [10]) | MIC (S. aureus TOUR L 165 [7]; [11]) | MIC [8] | ED50 (S. aureus tour L 165 [9]; TOURL165, 240 h, sc) | ED50 (S. aureus tour L 165 [9]; TOURL165, po, 240 h, os) |
| --- | --- | --- | --- | --- | --- | --- | --- | --- | --- | --- | --- | --- | --- | --- |
| COC1C=COC2(C)Oc3c(C)c(O)c4c(O)c(c5sc(N6CCN(C)CC6)nc5c4c3C2=O)NC(=O)C(C)=CC=CC(C)C(O)C(C)C(O)C(C)C(O)C1C (stereo not shown) [Example 3b, 25-Desacetyl-2'-(4"-methyl-1-piperazinyl) rifamycin P] | 8 µg/mL (≈ 10.1 µM) | 8 µg/mL (≈ 10.1 µM) | 16 µg/mL (≈ 20.1 µM) | 1 µg/mL (≈ 1.26 µM) | 0.063 µg/mL (≈ 0.0792 µM) | 0.063 µg/mL (≈ 0.0792 µM) | 1 µg/mL (≈ 1.26 µM) | > 128 µg/mL | 0.008 µg/mL (≈ 0.0101 µM) | 0.008 µg/mL (≈ 0.0101 µM) | 0.016 µg/mL (≈ 0.0201 µM) | 8 µg/mL (≈ 10.1 µM) | 10 mg/kg | 13 mg/kg |
| COC1C=COC2(C)Oc3c(C)c(O)c4c(O)c(c5sc(N6CCN(CCO)CC6)nc5c4c3C2=O)NC(=O)C(C)=CC=CC(C)C(O)C(C)C(O)C(C)C(OC(C)=O)C1C (stereo not shown) [Example 3c, 2'-[4"(2'"-hydroxyethyl)-1"-piperazinyl]rifamycin P] | 128 µg/mL (≈ 148 µM) | 8 µg/mL (≈ 9.23 µM) | 32 µg/mL (≈ 36.9 µM) | 4 µg/mL (≈ 4.61 µM) | 0.008 µg/mL (≈ 0.00923 µM) | 0.016 µg/mL (≈ 0.0185 µM) | 4 µg/mL (≈ 4.61 µM) | 64 µg/mL (≈ 73.8 µM) | 0.008 µg/mL (≈ 0.00923 µM) | 0.016 µg/mL (≈ 0.0185 µM) | 0.032 µg/mL (≈ 0.0369 µM) | 16 µg/mL (≈ 18.5 µM) | 3.3 mg/kg | > 20 mg/kg |
